Source: patent US7972610B2, “Antimicrobial compounds” (University of Strathclyde, priority 2005, dated 2011)

Tested on: A. castellanii
Assay: alamarBlue assay of susceptibility of A. castellanii to glyphosate
Format: cell-based
Conditions: Acanthamoeba castellanii; A. castellanii (Neff strain) trophozoites, 96 hr incubation, glyphosate 9 mM to 0.27 μM, FIG. 1; read-out: IC50 (inhibition of A. castellanii, percent alamarBlue reduction relative to untreated control cultures)
Method: Acanthamoeba polyphaga (Strain No. 1501/18) were obtained from CCAP (Cumbria, UK). Acanthamoeba castellanii (Neff strain) was kindly obtained from Keith Vickerman (Glasgow, UK). A. castellanii and A. polyphaga trophozoites were grown in (a) Rich media containing […] (Fluka, UK) and 0.9% maltose (Sigma, UK) and supplemented with 1% Penicillin, Streptomycin and Amphotericin B (All Sigma, UK) or (b) modified 11 containing 20% Rich media. Acanthamoeba spp. were incubated at room temperature in 75 cm^2 tissue culture flasks until 90-95% confluence, then harvested or sub-cultured using Accutase (Sigma, UK).
The susceptibility of the A. castellanii to glyphosate as assessed by the almarBlue assay. The susceptibility of A. castellanii to glyphosate was determined by a modification of the method described by McBride et al., (2005). A. castellanii cells were grown in 75 cm^2 flasks until 90-95% confluence and harvested using Accutase (Sigma, UK). […] AlamarBlue reduction was assessed as previously described. The percent inhibition of almarBlue reduction was calculated using the formula: (εox)λAλ1−(εox)λ1Aλ. of treated Acanthamoeba/(εox)λA°λ1−(εox)λ1A°λ of untreated Acanthamoeba×100
[where: °λ1=absorbance of untreated control with alamarBlue at 570 nm); °λ2=absorbance of untreated control with alamarBlue at 600 nm)]. […]

Compound: O=C(O)CNCP(=O)(O)O [Glyphosate, N-(phosphonomethyl)glycine]
- IC50: 2.19 to 4.39 µM
